In ChEMBL document CHEMBL4680307, “Potent leads based on CA-19L, an anti-HIV active HIV-1 capsid fragment” (Bioorg Med Chem, 2021):

Columns and labels:
[1] = tested on: Human immunodeficiency virus 1; experiment: Antiviral activity against HIV-1 NL4-3 in human MT-4 cells assessed as virus induced cytopathic effect incubated for 5 days by MTT assay; format: functional, organism-based; settings: Human immunodeficiency virus 1, NL4-3, MT4, 120 h
[2] = tested on: Human immunodeficiency virus 1; experiment: Antiviral activity against HIV-1 NL(AD8) in human PM1/CCR5 cells assessed as virus induced cytopathic effect incubated for 5 days by MTT assay; format: functional, organism-based; settings: Human immunodeficiency virus 1, NL(AD8), PM1/CCR5, 120 h
[3] = Cytotoxicity against in human MT-4 after 5 days by MTT assay; format: cell-based, MT4; settings: MT-4 cells, time 5 day
[4] = tested on: Human immunodeficiency virus 1; experiment: Antiviral activity against HIV-1 NL4-3 in human MT-4 cells assessed as virus induced cytopathic effect at 25 uM incubated for 5 days by MTT assay; format: functional; settings: Human immunodeficiency virus 1, NL4-3, MT4, 120 h, time 5 day
[5] = tested on: Human immunodeficiency virus 1; experiment: Antiviral activity against HIV-1 NL(AD8) in human PM1/CCR5 cells assessed as virus induced cytopathic effect at 50 uM incubated for 5 days by MTT assay; format: functional; settings: Human immunodeficiency virus 1, NL(AD8), PM1/CCR5, 120 h, time 5 day

CSCC[C@H](NC(=O)[C@H](Cc1c[nH]c2ccccc12)NC(=O)[C@H](CC(N)=O)NC(=O)[C@H](CCCCN)NC(=O)[C@@H](NC(C)=O)C(C)C)C(=O)N[C@H](C(=O)N[C@@H](CCC(=O)O)C(=O)N[C@H](C(=O)N[C@@H](CC(C)C)C(=O)N[C@@H](CC(C)C)C(=O)N[C@H](C(=O)N[C@@H](CCC(N)=O)C(=O)N[C@@H](CC(N)=O)C(=O)N[C@@H](C)C(=O)N[C@@H](CC(N)=O)C(=O)NCC(=O)N[C@@H](CSCC(=O)N[C@@H](CCCNC(=N)N)C(=O)N[C@@H](CCCNC(=N)N)C(=O)N[C@@H](CCCNC(=N)N)C(=O)N[C@@H](CCCNC(=N)N)C(=O)N[C@@H](CCCNC(=N)N)C(=O)N[C@@H](CCCNC(=N)N)C(=O)N[C@@H](CCCNC(=N)N)C(=O)N[C@@H](CCCNC(=N)N)C(N)=O)C(N)=O)C(C)C)[C@@H](C)O)[C@@H](C)O
EC50 [1]: > 50 µM | EC50 [2]: 50 µM | CC50 at 120 h [3]: > 50 µM | inhibition at 25 µM [4]: 27% | inhibition at 50 µM [5]: 40%

CC[C@H](C)[C@H](NC(=O)[C@@H](NC(=O)[C@H](CCCCN)NC(=O)[C@H](CO)NC(=O)[C@H](CC(=O)O)NC(=O)[C@@H]1CCCN1C(=O)[C@H](CC(N)=O)NC(=O)[C@H](C)NC(=O)[C@H](CC(N)=O)NC(=O)[C@H](CCC(N)=O)NC(=O)[C@@H](NC(=O)[C@H](CC(C)C)NC(=O)[C@H](CC(C)C)NC(=O)[C@@H](NC(=O)[C@H](CCC(=O)O)NC(=O)[C@@H](NC(=O)[C@H](CCSC)NC(=O)[C@H](Cc1c[nH]c2ccccc12)NC(=O)[C@H](CC(N)=O)NC(=O)[C@H](CCCCN)NC(=O)[C@@H](NC(=O)[C@H](CCC(=O)O)NC(=O)[C@H](CCC(N)=O)NC(=O)[C@H](CO)NC(C)=O)C(C)C)[C@@H](C)O)[C@@H](C)O)C(C)C)[C@@H](C)O)C(=O)N[C@@H](CC(C)C)C(=O)N[C@@H](CCCCN)C(=O)N[C@@H](C)C(=O)N[C@@H](CC(C)C)C(=O)NCC(=O)N1CCC[C@H]1C(=O)NCC(=O)N[C@@H](C)C(=O)N[C@H](C(=O)NCC(=O)N[C@@H](CSCC(=O)N[C@@H](CCCNC(=N)N)C(=O)N[C@@H](CCCNC(=N)N)C(=O)N[C@@H](CCCNC(=N)N)C(=O)N[C@@H](CCCNC(=N)N)C(=O)N[C@@H](CCCNC(=N)N)C(=O)N[C@@H](CCCNC(=N)N)C(=O)N[C@@H](CCCNC(=N)N)C(=O)N[C@@H](CCCNC(=N)N)C(N)=O)C(N)=O)[C@@H](C)O
EC50 [1]: 22 µM | EC50 [2]: 50 µM | CC50 at 120 h [3]: > 50 µM

COC[C@@H](c1ccc(C(F)(F)F)cc1)N1CCN(C2(C)CCN(C(=O)c3c(C)ncnc3C)CC2)C[C@@H]1C [VICRIVIROC]
EC50 [1]: > 5 µM | EC50 [2]: 0.21 µM | CC50 at 120 h [3]: > 5 µM

c1cc(CN2CCCNCCNCCCNCC2)ccc1CN1CCCNCCNCCCNCC1 [PLERIXAFOR]
EC50 [1]: 0.049 µM | EC50 [2]: > 50 µM | CC50 at 120 h [3]: > 50 µM

Cc1cn([C@H]2C[C@H](N=[N+]=[N-])[C@@H](CO)O2)c(=O)[nH]c1=O [ZIDOVUDINE]
EC50 [1]: 0.094 µM | EC50 [2]: 3.3 µM | CC50 at 120 h [3]: 74 µM

CC[C@H](C)[C@H](NC(=O)[C@@H](NC(=O)[C@H](CCCCN)NC(=O)[C@H](CO)NC(=O)[C@H](CC(=O)O)NC(=O)[C@@H]1CCCN1C(=O)[C@H](CC(N)=O)NC(=O)[C@H](C)NC(=O)[C@H](CC(N)=O)NC(=O)[C@H](CCC(N)=O)NC(=O)[C@@H](NC(=O)[C@H](CC(C)C)NC(=O)[C@H](CC(C)C)NC(=O)[C@@H](NC(=O)[C@H](CCC(=O)O)NC(=O)[C@@H](NC(=O)[C@H](CCSC)NC(=O)[C@H](Cc1c[nH]c2ccccc12)NC(=O)[C@H](CC(N)=O)NC(=O)[C@H](CCCCN)NC(=O)[C@@H](NC(=O)[C@H](CCC(=O)O)NC(=O)[C@H](CCC(N)=O)NC(=O)[C@H](CO)NC(C)=O)C(C)C)[C@@H](C)O)[C@@H](C)O)C(C)C)[C@@H](C)O)C(=O)N[C@@H](CC(C)C)C(=O)N[C@@H](CCCCN)C(=O)N[C@@H](C)C(=O)N[C@@H](CC(C)C)C(=O)NCC(=O)N[C@@H](CSCC(=O)N[C@@H](CCCNC(=N)N)C(=O)N[C@@H](CCCNC(=N)N)C(=O)N[C@@H](CCCNC(=N)N)C(=O)N[C@@H](CCCNC(=N)N)C(=O)N[C@@H](CCCNC(=N)N)C(=O)N[C@@H](CCCNC(=N)N)C(=O)N[C@@H](CCCNC(=N)N)C(=O)N[C@@H](CCCNC(=N)N)C(N)=O)C(N)=O
EC50 [1]: > 25 µM | EC50 [2]: 50 µM | CC50 at 120 h [3]: 21 µM | inhibition at 25 µM [4]: 39%
